The numbers were not newly measured in patent EP4378455A1, “A PHARMACEUTICAL FORMULATION COMPRISING EMPAGLIFLOZIN” (SANOVEL ILAC SANAYI VE TICARET A.S., priority 2022, dated 2024), which cites them from elsewhere.

`OC[C@H]1O[C@@H](c2ccc(Cl)c(Cc3ccc(O[C@H]4CCOC4)cc3)c2)[C@H](O)[C@@H](O)[C@@H]1O` [Empagliflozin, (1S)-1,5-anhydro-1-(4-chloro-3-{4-[(3S)-tetrahydrofuran-3-yloxy]benzyl}phenyl)-D-glucitol]: where the note is “acetonitrile”, the solubility in acetonitrile entry is given as “slightly soluble”. In addition, the solubility in ethanol entry (ethanol) is given as “slightly soluble”. The solubility in methanol result (methanol) is given as “sparingly soluble”. In addition, for the setting “toluene”, the solubility in toluene entry is on record as “practically insoluble”. In addition, the solubility in water result (water (pH 1-7.4)) is recorded as “very slightly soluble”.
